In PubChem BioAssay AID652124 (The Scripps Research Institute Molecular Screening Center, 2013):
The source made the active and inactive calls. How the calls were made is not given here.

These molecules were tested against Perilipin-5 (Homo sapiens) + 1-acylglycerol-3-phosphate O-acyltransferase ABHD5 (Homo sapiens) (UniProt Q00G26+Q8WTS1) (assay: inhibition of ABHD5 association with perilipin-5 – biochemical, luminescence, dose response, round 2, late-stage follow-up (AID 652124)). Details: biochemical ABHD5-PLIN5 interaction.
Sequence of Perilipin-5 (Homo sapiens) + 1-acylglycerol-3-phosphate O-acyltransferase ABHD5 (Homo sapiens) (Q00G26 whole entry, looked up): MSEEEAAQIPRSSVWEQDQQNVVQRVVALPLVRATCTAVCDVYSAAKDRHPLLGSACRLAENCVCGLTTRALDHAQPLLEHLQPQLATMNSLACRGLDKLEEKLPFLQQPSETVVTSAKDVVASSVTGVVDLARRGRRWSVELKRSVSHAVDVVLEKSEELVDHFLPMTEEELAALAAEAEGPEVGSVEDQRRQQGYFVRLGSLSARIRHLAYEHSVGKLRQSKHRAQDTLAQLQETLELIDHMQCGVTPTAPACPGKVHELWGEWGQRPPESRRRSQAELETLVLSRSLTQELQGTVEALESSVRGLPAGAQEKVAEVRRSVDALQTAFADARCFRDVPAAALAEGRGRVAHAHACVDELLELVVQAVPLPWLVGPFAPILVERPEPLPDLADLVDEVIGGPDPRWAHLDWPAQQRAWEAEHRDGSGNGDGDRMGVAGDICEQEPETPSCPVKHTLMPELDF
Sequence of Perilipin-5 (Homo sapiens) + 1-acylglycerol-3-phosphate O-acyltransferase ABHD5 (Homo sapiens) (Q8WTS1 whole entry, looked up): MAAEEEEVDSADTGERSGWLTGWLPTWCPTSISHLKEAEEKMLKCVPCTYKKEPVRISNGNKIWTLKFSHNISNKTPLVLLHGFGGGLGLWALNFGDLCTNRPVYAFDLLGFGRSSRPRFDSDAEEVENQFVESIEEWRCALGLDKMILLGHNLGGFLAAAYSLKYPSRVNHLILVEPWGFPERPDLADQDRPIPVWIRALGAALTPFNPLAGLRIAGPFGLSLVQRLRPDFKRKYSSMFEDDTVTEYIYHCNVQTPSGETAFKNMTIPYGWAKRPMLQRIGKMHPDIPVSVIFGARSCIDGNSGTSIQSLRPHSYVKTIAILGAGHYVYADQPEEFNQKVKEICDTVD

| IC50 | Structure (SMILES) |
| --- | --- |
| 1.45 µM | CS(=O)(=O)c1ncc(Cl)c(C(=O)Nc2ccc(C(F)(F)F)cc2)n1 |
| 4.13 µM | CCS(=O)(=O)c1ncc(Cl)c(C(=O)Nc2ccc(C)cc2)n1 |
| > 39.8 µM (inactive) | O=C(Cc1cccc(F)c1)N1CCN(S(=O)(=O)c2ccc3c(c2)OCCO3)CC1 |
| 6.48 µM | CCS(=O)(=O)c1ncc(Cl)c(C(=O)Nc2ccc(S(N)(=O)=O)cc2)n1 |
| inactive | CCCCCCCNC(=O)Nc1ccc2c(c1)Sc1ccccc1C(=O)N2C |
| 1.64 µM | O=C(c1nc(S(=O)(=O)Cc2ccccc2)ncc1Cl)N(Cc1ccccc1)Cc1ccco1 |
| > 39.8 µM (inactive) | COc1ccc(CC(=O)N2CCCN(S(=O)(=O)c3ccc(C)cc3)CC2)cc1OC |
| > 39.8 µM (inactive) | O=C(C1COc2ccccc2O1)N1CCN(S(=O)(=O)c2ccc3c(c2)OCCO3)CC1 (configuration not stated) |
| > 39.8 µM (inactive) | CC(C)N1C(=O)c2ccccc2Oc2ccc(NC(=O)c3ccccc3)cc21 |
| > 39.8 µM (inactive) | CCCC(=O)Nc1ccc2c(c1)C(=O)N(C)c1cc(C)ccc1O2 |
| 2.95 µM | COc1ccc(CCNC(=O)c2nc(S(=O)(=O)Cc3ccc(F)cc3)ncc2Cl)cc1OC |
| > 39.8 µM (inactive) | CCCCCNC(=O)Nc1ccc2c(c1)Sc1ccccc1C(=O)N2C |
| > 39.8 µM (inactive) | O=C(CCn1cnc2ccccc21)N1CCN(S(=O)(=O)c2ccc3c(c2)OCCO3)CC1 |
| inactive | CN(C)CCCN(C(=O)Cc1ccc(F)cc1)c1nc2ccc(Cl)cc2s1 |
| 3.8 µM | NS(=O)(=O)c1ccc(NC(=O)c2nc(S(=O)(=O)Cc3ccccc3)ncc2Cl)cc1 |
| inactive | CN(C)CCCN(C(=O)CCc1ccccc1)c1nc2ccc(Cl)cc2s1 |
| > 39.8 µM (inactive) | CN(C)CCCN(C(=O)C1CCCCC1)c1nc2cc(Cl)ccc2s1 |
| 1.72 µM | CN1C(=O)c2ccccc2Sc2ccc(NC(=O)NCCCc3ccccc3)cc21 |
| > 39.8 µM (inactive) | CN1C(=O)c2ccccc2Oc2ccc(NC(=O)c3cccs3)cc21 |
| > 39.8 µM (inactive) | COc1ccc(CC(=O)N2CCN(S(=O)(=O)c3ccc4c(c3)OCCCO4)CC2)cc1 |
| 4.98 µM | CN1C(=O)c2ccccc2Sc2ccc(NC(=O)NCCc3cccs3)cc21 |
| inactive | CCCNC(=O)Nc1ccc2c(c1)N(CC)C(=O)c1ccccc1S2 |
| inactive | CN(C)CCCN(C(=O)C1CCCCC1)c1nc2cc(Br)ccc2s1 |
| inactive | CN(C)CCCN(C(=O)c1cc2ccccc2oc1=O)c1nc2ccc(Cl)cc2s1 |

| IC50 | Structure (SMILES) |
| --- | --- |
| > 39.8 µM (inactive) | O=C(CCc1nc2ccccc2s1)N1CCN(S(=O)(=O)c2ccc3c(c2)OCCO3)CC1 |
| > 39.8 µM (inactive) | O=C(CCc1c[nH]c2ccccc12)N1CCN(S(=O)(=O)c2ccc3c(c2)OCCO3)CC1 |
| 3.15 µM | Cc1ccc(CS(=O)(=O)c2ncc(Cl)c(C(=O)NCc3ccc4c(c3)OCO4)n2)cc1 |
| 4.12 µM | CCCS(=O)(=O)c1ccc(Cl)c(C(=O)Nc2ccc(C(=O)OCC)cc2)c1 |
| 2.19 µM | Cc1ccc(CS(=O)(=O)c2ncc(Cl)c(C(=O)Nc3cccc4ccccc34)n2)cc1 |
| > 39.8 µM (inactive) | CCCC(=O)Nc1ccc2c(c1)C(=O)N(C)c1ccccc1O2 |
| > 39.8 µM (inactive) | CCCC(=O)N(CCCN1CCOCC1)c1nc2ccc(Cl)cc2s1 |
| 5.91 µM | Cc1ccc(CS(=O)(=O)c2ncc(Cl)c(C(=O)N3CCN(C)CC3)n2)cc1 |
| 3.7 µM | CN1C(=O)c2ccccc2Sc2ccc(NC(=O)NCCc3ccccc3)cc21 |
| 3.56 µM | CN(C(=O)c1nc(S(C)(=O)=O)ncc1Cl)c1ccccc1 |
| > 39.8 µM (inactive) | CC(NC(=O)CN1CCN(S(=O)(=O)c2ccc3c(c2)OCCCO3)CC1)c1cc2ccccc2o1 (configuration not stated) |
| 4.44 µM | CCCS(=O)(=O)c1ncc(Cl)c(C(=O)Nc2ccc(C(=O)OC)cc2)n1 |
| 3.88 µM | CCc1ccc2c(CC(=O)N3CCN(S(=O)(=O)c4ccc5c(c4)OCCO5)CC3)coc2c1 |
| > 39.8 µM (inactive) | CN1C(=O)c2ccccc2Oc2ccc(NC(=O)c3cc4ccccc4[nH]3)cc21 |
| inactive | Cc1ccc2cc(CC(=O)N3CCN(S(=O)(=O)c4ccc5c(c4)OCCO5)CC3)oc2c1 |
| 4.72 µM | Cc1ccc2c(CC(=O)N3CCN(S(=O)(=O)c4ccc5c(c4)OCCCO5)CC3)coc2c1C |
| > 39.8 µM (inactive) | COc1ccc(OCC(=O)Nc2ccc3c(c2)N(C(C)C)C(=O)c2ccccc2O3)cc1 |
| > 13.3 µM (inactive) | Cc1ccc(CS(=O)(=O)c2ncc(Cl)c(C(=O)Nc3nnc(C(C)C)s3)n2)cc1 |
| inactive | O=C(Cc1ccc2c(c1)CCCC2)N1CCN(S(=O)(=O)c2ccc3c(c2)OCCO3)CC1 |
| 1.76 µM | Cc1ccc(CS(=O)(=O)c2ncc(Cl)c(C(=O)Nc3cccc(C(F)(F)F)c3)n2)cc1 |
| 4.24 µM | Cc1ccc(NC(=O)c2nc(S(C)(=O)=O)ncc2Cl)cc1 |
| 2.17 µM | O=C(Nc1ccc2ccccc2c1)c1nc(S(=O)(=O)Cc2ccccc2)ncc1Cl |
| > 39.8 µM (inactive) | CCCCCCNC(=O)Nc1ccc2c(c1)Sc1ccccc1C(=O)N2C |
